Measurements published in ChEMBL document CHEMBL1201862, “PubChem BioAssay data set” (2004).
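Five concentrations, 48 hours, 96-well plates. GI50 is the concentration that inhibits growth by half.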 The source made the active and inactive calls. Cut-off read from the data, not from the text of the source: active = GI50 up to about 1.1 µM and inactive = higher.

Columns and labels:
Assay in all cases: inhibition of tumour cell growth, NCI panel, 48 h
786-0 = test system: 786-0
A549 = test system: A549
ACHN = test system: ACHN
BT-549 = test system: BT-549
CAKI-1 = test system: CAKI-1
CCRF-CEM = test system: CCRF-CEM
COLO 205 = test system: COLO 205
DU-145 = test system: DU-145
EKVX = test system: EKVX
HCC 2998 = test system: HCC 2998
HCT-116 = test system: HCT-116
HCT-15 = test system: HCT-15
HL-60 = test system: HL-60
HOP-62 = test system: HOP-62
HOP-92 = test system: HOP-92
HT-29 = test system: HT-29
Hs-578T = test system: Hs-578T
IGROV-1 = test system: IGROV-1
KM12 = test system: KM12
LOX IMVI = test system: LOX IMVI
M14 = test system: M14
MCF7 = test system: MCF7
MDA-MB-231 = test system: MDA-MB-231
MDA-MB-435 = test system: MDA-MB-435
MDA-N = test system: MDA-N
MOLT-4 = test system: MOLT-4
NCI-H226 = test system: NCI-H226
NCI-H23 = test system: NCI-H23
NCI-H522 = test system: NCI-H522
NCI/ADR-RES = test system: NCI/ADR-RES
OVCAR-3 = test system: OVCAR-3
OVCAR-4 = test system: OVCAR-4
OVCAR-5 = test system: OVCAR-5
OVCAR-8 = test system: OVCAR-8
PC-3 = test system: PC-3
RPMI-8226 = test system: RPMI-8226
RXF 393 = test system: RXF 393
SF-268 = test system: SF-268
SF-295 = test system: SF-295
SF-539 = test system: SF-539
SK-MEL-28 = test system: SK-MEL-28
SK-MEL-2 = test system: SK-MEL-2
SK-MEL-5 = test system: SK-MEL-5
SK-OV-3 = test system: SK-OV-3
SN12C = test system: SN12C
SNB-19 = test system: SNB-19
SNB-75 = test system: SNB-75
SR = test system: SR
SW-620 = test system: SW-620
T47D = test system: T47D
TK-10 = test system: TK-10
U-251 = test system: U-251
UACC-257 = test system: UACC-257
UACC-62 = test system: UACC-62
UO-31 = test system: UO-31
K562 = test system: K562
Malme-3M = test system: Malme-3M
NCI-H460 = test system: NCI-H460

Measured: GI50

O=C1NC(N2CCOCC2)=N/C1=C\c1ccco1
> 100 µM: HCT-15
inactive: 786-0 > 100 µM | A549 > 100 µM | ACHN > 100 µM | BT-549 > 100 µM | CAKI-1 > 100 µM | CCRF-CEM > 100 µM | COLO 205 > 100 µM | DU-145 > 100 µM | EKVX > 100 µM | HCC 2998 > 100 µM | HCT-116 > 100 µM | HL-60 > 100 µM | HOP-62 > 100 µM | HOP-92 > 100 µM | HT-29 > 100 µM | Hs-578T > 100 µM | IGROV-1 > 100 µM | KM12 > 100 µM | LOX IMVI > 100 µM | M14 > 100 µM | MCF7 > 100 µM | MDA-MB-231 > 100 µM | MDA-MB-435 > 100 µM | MDA-N > 100 µM | MOLT-4 > 100 µM | NCI-H226 > 100 µM | NCI-H23 > 100 µM | NCI-H522 > 100 µM | NCI/ADR-RES > 100 µM | OVCAR-3 > 100 µM | OVCAR-4 > 100 µM | OVCAR-5 > 100 µM | OVCAR-8 > 100 µM | PC-3 > 100 µM | RPMI-8226 > 100 µM | RXF 393 > 100 µM | SF-268 > 100 µM | SF-295 > 100 µM | SF-539 > 100 µM | SK-MEL-28 > 100 µM | SK-MEL-2 > 100 µM | SK-MEL-5 > 100 µM | SK-OV-3 > 100 µM | SN12C > 100 µM | SNB-19 > 100 µM | SNB-75 > 100 µM | SR > 100 µM | SW-620 > 100 µM | T47D > 100 µM | TK-10 > 100 µM | U-251 > 100 µM | UACC-257 > 100 µM | UACC-62 > 100 µM | UO-31 > 100 µM

NNC(=O)c1cc(Cl)ccc1NC(=O)C12CC3CC(CC(C3)C1)C2
inactive: 786-0 21.4 µM | A549 20.2 µM | ACHN 23.6 µM | BT-549 37.4 µM | CAKI-1 24.2 µM | COLO 205 33.6 µM | DU-145 44.8 µM | HCC 2998 18.5 µM | HCT-116 25.2 µM | HL-60 23 µM | HOP-62 45.6 µM | HOP-92 26.3 µM | HT-29 20.2 µM | Hs-578T 31.8 µM | IGROV-1 30.8 µM | K562 29.2 µM | KM12 30.1 µM | LOX IMVI 32 µM | M14 14.1 µM | MCF7 27.2 µM | MDA-MB-231 51.2 µM | MDA-MB-435 29.3 µM | MDA-N 26.2 µM | MOLT-4 12.1 µM | Malme-3M 23.6 µM | NCI-H226 > 100 µM | NCI-H23 37.6 µM | NCI-H460 30.9 µM | NCI-H522 25.4 µM | NCI/ADR-RES 34.8 µM | OVCAR-3 25.5 µM | OVCAR-4 21.8 µM | OVCAR-5 15.6 µM | OVCAR-8 30.4 µM | PC-3 35.3 µM | RPMI-8226 24 µM | RXF 393 37.8 µM | SF-268 20.2 µM | SF-295 39.5 µM | SF-539 42.1 µM | SK-MEL-28 29.9 µM | SK-MEL-2 37.8 µM | SK-MEL-5 25.9 µM | SK-OV-3 28.7 µM | SN12C 20.5 µM | SNB-19 15.6 µM | SNB-75 42.9 µM | SR 14.4 µM | SW-620 39.6 µM | T47D 33 µM | TK-10 28.4 µM | U-251 31.4 µM | UACC-257 29.3 µM | UACC-62 24.1 µM | UO-31 17.1 µM
27.8 µM: HCT-15
